Experimental data from publication PMC4090575, “An In Vivo Microdialysis Study of FLZ Penetration through the Blood-Brain Barrier in Normal and 6-Hydroxydopamine Induced Parkinson's Disease Model Rats” (BioMed Research International, 2014).
Read-outs that look alike come from different tables or passages of the source.

Columns and labels:
[1] = In vivo microdialysis pharmacokinetics of free FLZ in blood and brain dialysates, with or without zosuquidar·3HCl pretreatment; set-up: species or system rat; details: for AUC, Brain / AUC: n = 3; for AUC / clearance / half-life / unbound brain-to-blood AUC ratio (Kp,uu): rat, 35 mg/kg; for clearance: read-out: CLz, Blood (converted); for unbound brain-to-blood AUC ratio (Kp,uu): brain dialysate / blood dialysate, BBB penetration ratio of free FLZ, read-out: Ri (AUCbrain/AUCblood)
Procedure: (§1) Rats were divided into four groups (n = 3 animals per group): three normal rats treated with FLZ only (FLZ only-N); three PD rats treated with FLZ only (FLZ only-PD); three normal rats treated with FLZ plus zosuquidar·3HCl (FLZ + ZOSUQ-N); and three PD rats treated with FLZ plus zosuquidar·3HCl (FLZ + ZOSUQ-PD). The system was equilibrated for 1 h after surgery. FLZ was dissolved in a mixture of dimethyl sulfoxide, polyethylene glycol 400, and sodium chloride injection (1 : 4 : 5 (v/v/v)). All rats received FLZ (35 mg/kg) via intravenous injection into the tail vein (with or without pretreatment with zosuquidar·3HCl). Rats in the FLZ + ZOSUQ-N and FLZ + ZOSUQ-PD groups received an i.v. injection of zosuquidar·3HCl (20 mg/kg, dissolved in 20% ethanol-saline) 10 min before FLZ administration. The dose, route of administration, and timing of P-gp inhibition were based on those described in earlier studies. Microdialysis samples were collected from the striatum and the jugular vein at 15 min intervals for 1 h before (blanks) and for 4 h after FLZ administration. The samples were stored at −80°C until they were analysed by ultraperformance liquid chromatography-tandem mass spectrometry (UPLC-MS/MS). At the end of the experiment, the rats were decapitated and the brains were removed for histological verification of probe placement. Data were discarded if the probe placement was outside the target area.
(§2) The microdialysis system comprised a CMA 470 refrigerated fraction collector, a CMA 402 syringe pump, and fluorinated ethylene propylene tubing (CMA, Solna, Sweden). CMA microdialysis probes for the blood (CMA 20, 10 mm in length) and brain (CMA 12, 4 mm in length) were also used. Animals were anaesthetized with urethane (1.4 g/kg, i.p.) before surgery and remained anesthetized throughout the experimental period. The body temperature of each rat was maintained at 37°C until the end of the experiment using a heating pad. The blood microdialysis probe was positioned within the jugular vein toward the right atrium and sutured to the surrounding muscle to prevent it from slipping out. The probe was then perfused with heparinized ringer's solution (1500 U/mL) for 15 min. The microdialysis guide cannula was implanted into the right striatum zone (anterior-posterior: 0.2 mm; lateral: 3.0 mm; dorsal-ventral: 3.5 mm from bregma) and fixed to the skull with stainless steel screws and dental acrylic. The brain microdialysis probe was inserted through the guide cannula.
(§3) In the pilot microdialysis experiment, ringer's solution was perfused through the probe at a flow rate of 1.5 μL/min and the dialysate samples were collected every 15 min from 90 min before until 6 h after dosing with FLZ. In all the other groups, the probes were perfused with ringer's solution containing 4% BSA, with the flow rate set at 1.0 μL/min.
(§4) The relative recovery of FLZ using the microdialysis probe was estimated using a retrodialysis method after sample collection and clearing overnight until there is no drug in the tissue and blood. Perfusates containing FLZ (20 ng/mL for the brain and 200 ng/mL for the blood) were passed separately into the brain and blood through the microdialysis probes at a constant flow rate of 1 μL/min. After a 1-hour stabilization period, the dialysates were collected at 15 min intervals for 1 hour. The concentrations of FLZ in the dialysate (C out) and perfusate (C in) were analysed by UPLC-MS/MS as described in Section 2.7. Recovery (R) was expressed by the following equation: R = 1 − (C out/C in).
(§5) Pharmacokinetic parameters were calculated from the observed data by noncompartmental analysis using the Drug and Statistics for Windows software package (DAS, version 2.0, Chinese Pharmacological Association, China). […]

P-gp = test: as above; set-up: species or system rat; details: rat, iv, with zosuquidar·3HCl 20 mg/kg i.v. 10 min before FLZ; for AUC / clearance / half-life: 35 mg/kg; for AUC: zosuquidar·3HCl 20 mg/kg i.v. 10 min before FLZ 35 mg/kg i.v., n = 3; for clearance / half-life / unbound brain-to-blood AUC ratio (Kp,uu): zosuquidar·3HCl 20 mg/kg i.v. pretreatment, FLZ 35 mg/kg i.v.; for clearance: read-out: CLz, Blood (converted); for unbound brain-to-blood AUC ratio (Kp,uu): brain dialysate / blood dialysate, read-out: Ri (AUCbrain/AUCblood)
Procedure: as §1, §2, §3, §4, §5

[2] = Stability of FLZ in UPLC-MS/MS method validation; format: physicochemical; details: during preparation, after three freeze/thaw cycles and after storing at −80°C for 45 days
Procedure: Stock solutions of FLZ and IS were prepared separately in methanol at a target concentration of 1 mg/mL and then diluted with methanol to create working solutions of FLZ at concentrations of 1, 3, 10, 30, 100, 300, 1000, 1500, 2500, 5000, 10000, and 15000 ng/mL and IS at concentrations of 10 ng/mL. All solutions were stored in glass tubes at 4°C for less than 2 months until analysis and were protected from light. FLZ calibration standards (0.1, 0.3, 1, 3, 10, 30, 100, 150, 250, 500, 1000, and 1500 ng/mL) were prepared by spiking the blank perfusate with the appropriate working standard solution of FLZ. Quality control samples were prepared using the working solutions from the same stock solution (0.1, 0.3, 1, 10, 100, and 1000 ng/mL), thereby representing the entire range of concentrations.
Assay validation to meet the acceptance criteria was performed according to the bioanalytical method validation guideline (European Medicines Agency Guideline on Bioanalytical Method Validation, July 21, 2011). The assay was validated in terms of specificity, matrix effect, recovery, calibration curve, precision, accuracy (intra- and interday), lower limit of quantification (LLOQ), and stability (autosampler, freeze-thaw, and long-term).

[3] = set-up: method as in PMID 22472186; details: cited from earlier work
plasma proteins = tested on: plasma proteins; set-up: method as in Our previous work; details: ref Our previous work; cited from earlier work
[4] = stated with the material supplied; source not given; cited from earlier work
[5] = FLZ + ZOSUQ-N group relative to FLZ only-N group, normal rats
[6] = FLZ + ZOSUQ-PD group relative to FLZ only-PD group, PD rats
[7] = blood (jugular vein) dialysate, FLZ + ZOSUQ-N: normal rats, blood dialysate
[8] = blood (jugular vein) dialysate, FLZ + ZOSUQ-PD: 6-OHDA PD rats, blood dialysate

COc1ccc(OC)c(C(=Cc2ccc(O)c(OC)c2)C(=O)NCCc2ccc(O)cc2)c1 [FLZ, N-[2-(4-hydroxy-phenyl)-ethyl]-2-(2,5-dimethoxy-phenyl)-3-(3-methoxy-4-hydroxy-phenyl)-acrylamide]
reduction in FLZ blood dialysate AUC ([1]; FLZ + ZOSUQ-N group compared with FLZ only-N group, normal rats, not statistically significant): 34%
increase in brain : blood free FLZ AUC ratio [1, 5]: 3 fold
increase in mean brain dialysate FLZ AUC [1, 5]: 123%
AUC, Brain ([1]; FLZ + ZOSUQ-N: normal rats, zosuquidar·3HCl 20 mg/kg i.v. pretreatment, FLZ 35 mg/kg i.v., brain dialysate): 324 ± 46∗∗ μg/L × h
decrease in FLZ blood dialysate AUC [1, 6]: 56%
increase in FLZ brain dialysate AUC [1, 6]: 130%
increase in brain : blood free FLZ AUC ratio [1, 6]: 4 fold
AUC, Brain ([1]; FLZ + ZOSUQ-PD: 6-OHDA PD rats, zosuquidar·3HCl 20 mg/kg i.v. pretreatment, FLZ 35 mg/kg i.v., brain dialysate): 333 ± 103∗ μg/L × h
AUC, Brain ([1]; FLZ only-N: normal rats, FLZ 35 mg/kg i.v., brain (striatum) dialysate): 145 ± 25 µg·h/L
decrease in brain : blood free FLZ AUC ratio ([1]; FLZ only-PD group relative to FLZ only-N group, not statistically significant): 20%
AUC, Brain ([1]; FLZ only-PD: 6-OHDA PD rats, FLZ 35 mg/kg i.v., brain (striatum) dialysate): 145 ± 18 µg·h/L
AUC ([1]; blood (jugular vein) dialysate, iv, FLZ only-N: normal rats, FLZ 35 mg/kg i.v., blood dialysate, free FLZ): 2350 ± 39 ng·h/mL
clearance ([1]; blood (jugular vein) dialysate, iv, FLZ only-N: normal rats, FLZ 35 mg/kg i.v., blood dialysate): 248 mL/min/kg
half-life ([1]; blood (jugular vein) dialysate, iv, FLZ only-N: normal rats, FLZ 35 mg/kg i.v., blood dialysate, read-out: t 1/2, Blood (converted)): 1.21 ± 0.22 h
AUC ([1]; blood (jugular vein) dialysate, iv, FLZ only-PD: 6-OHDA PD rats, FLZ 35 mg/kg i.v., blood dialysate, free FLZ): 3070 ± 621 ng·h/mL
clearance ([1]; blood (jugular vein) dialysate, iv, FLZ only-PD: 6-OHDA PD rats, FLZ 35 mg/kg i.v., blood dialysate): 195 mL/min/kg
half-life ([1]; blood (jugular vein) dialysate, iv, FLZ only-PD: 6-OHDA PD rats, FLZ 35 mg/kg i.v., blood dialysate, read-out: t 1/2, Blood (converted)): 1.34 ± 0.03 h
half-life ([1]; blood dialysate and brain dialysate, intravenous, present study, both in the blood and brain, free FLZ, read-out: t 1/2 of FLZ (converted)): ~1.1 h
half-life ([1]; brain (striatum) dialysate, iv, FLZ only-N: normal rats, FLZ 35 mg/kg i.v., brain dialysate, read-out: t 1/2, Brain (converted)): 1.15 ± 0.57 h
half-life ([1]; brain (striatum) dialysate, iv, FLZ only-PD: 6-OHDA PD rats, FLZ 35 mg/kg i.v., brain dialysate, read-out: t 1/2, Brain (converted)): 1.31 ± 0.29 h
unbound brain-to-blood AUC ratio (Kp,uu) ([1]; iv, FLZ only-N: normal rats, FLZ 35 mg/kg i.v.): 0.0617 ± 0.0105
unbound brain-to-blood AUC ratio (Kp,uu) ([1]; iv, FLZ only-PD: 6-OHDA PD rats, FLZ 35 mg/kg i.v.): 0.0492 ± 0.0158
AUC (P-gp; [7]): 1560 ± 881 ng·h/mL
clearance (P-gp; [7]): 473 mL/min/kg
half-life (P-gp; blood (jugular vein) dialysate, FLZ + ZOSUQ-N: normal rats, blood dialysate, read-out: t 1/2, Blood (converted)): 1.11 ± 0.13 h
AUC (P-gp; [8]): 1330 ± 259 ng·h/mL
clearance (P-gp; [8]): 447 mL/min/kg
half-life (P-gp; blood (jugular vein) dialysate, FLZ + ZOSUQ-PD: 6-OHDA PD rats, blood dialysate, read-out: t 1/2, Blood (converted)): 1.43 ± 0.25 h
half-life (P-gp; brain (striatum) dialysate, FLZ + ZOSUQ-N: normal rats, brain dialysate, read-out: t 1/2, Brain (converted)): 1.04 ± 0.43 h
half-life (P-gp; brain (striatum) dialysate, FLZ + ZOSUQ-PD: 6-OHDA PD rats, brain dialysate, read-out: t 1/2, Brain (converted)): 1.14 ± 0.27 h
unbound brain-to-blood AUC ratio (Kp,uu) (P-gp; FLZ + ZOSUQ-N: normal rats): 0.248 ± 0.114
unbound brain-to-blood AUC ratio (Kp,uu) (P-gp; FLZ + ZOSUQ-PD: 6-OHDA PD rats): 0.246 ± 0.027
stability of FLZ [2]: remained stable
increase in FLZ brain-to-plasma ratio with zosuquidar·3HCl pretreatment versus control ([3]; 0.25 min postdose, brain homogenate-to-plasma concentration ratio): about 3.1 fold
t 1/2 of FLZ reported previously [3]: about 0.5 h
binding rate of FLZ to plasma proteins (plasma proteins): about 90%
lipophilicity [4]: lipophilic
pKa [4]: 13.75 ± 0.46
water solubility [4]: poorly water-soluble
